Data taken from patent US4272437A, “Antibacterial agents, and 4-thio azetidinone intermediates” (priority 1979, dated 1981).
≈ marks a conversion by molar mass, not a printed value. Where a name gives a salt, the structure may show the parent alone. Read-outs that look alike come from different tables or passages of the source.

How the values were obtained:
Str. pneumoniae A-9585 = assay: MIC, tube dilution, Streptococcus pneumoniae A9585; assay type: cell-based; conditions: Streptococcus pneumoniae, A9585, Str. pneumoniae A9585; overnight 37° C., Nutrient Broth; read-out: Minimum Inhibitory Concentration (M.I.C.)
Excerpt: (§1) Representative compounds of the present invention were subjected to in vitro antibiotic screening against a variety of microorganisms.

Str. pyogenes A-9604 = assay: MIC, tube dilution, Streptococcus pyogenes A9604; assay type: cell-based; conditions: Streptococcus pyogenes, A9604, Str. pyogenes A9604; overnight 37° C., Nutrient Broth; read-out: Minimum Inhibitory Concentration (M.I.C.)
Excerpt: as §1

Staph. aureus A-9537 = assay: MIC, tube dilution, Staphylococcus aureus A9537; assay type: cell-based; conditions: Staphylococcus aureus, A9537, Staph. aureus A9537; overnight 37° C., Nutrient Broth; read-out: Minimum Inhibitory Concentration (M.I.C.)
Excerpt: as §1

[1] = tested on: Staph. aureus A-9537 and 50% serum; assay: MIC, tube dilution, Staph. aureus A9537 + 50% serum; assay type: cell-based, Staphylococcus aureus; conditions: Staphylococcus aureus, overnight 37° C., read-out: Minimum Inhibitory Concentration (M.I.C.)
Excerpt: as §1

[2] = tested on: Staph. aureus (Pen-Res) A-9606; assay: MIC, tube dilution, Staphylococcus aureus A9606 (Pen-Res); assay type: cell-based; conditions: Staphylococcus aureus, Staph. aureus A9606 (Pen-Res); overnight 37° C.; read-out: Minimum Inhibitory Concentration (M.I.C.)
Excerpt: as §1

[3] = tested on: Staph. aureus (Meth-Res) A-15097; assay: MIC, tube dilution, Staphylococcus aureus A15097 (Meth-Res); assay type: cell-based; conditions: Staphylococcus aureus, overnight 37° C.
Excerpt: as §1

Str. faecalis A-20688 = assay: MIC, tube dilution, Streptococcus faecalis A20688; assay type: cell-based; conditions: Enterococcus faecalis, A20688, Str. faecalis A20688; overnight 37° C.; read-out: Minimum Inhibitory Concentration (M.I.C.)
Excerpt: as §1

E. coli A-15119 = assay: MIC, tube dilution, Escherichia coli A15119; assay type: cell-based; conditions: Escherichia coli, A15119, E. coli A15119; overnight 37° C.; read-out: Minimum Inhibitory Concentration (M.I.C.)
Excerpt: as §1

E. coli A-20341-1 = assay: MIC, tube dilution, Escherichia coli A20341-1; assay type: cell-based
Excerpt: as §1

K. pneumoniae A-15130 = assay: MIC, tube dilution, Klebsiella pneumoniae A15130; assay type: cell-based; conditions: Klebsiella pneumoniae, A15130, K. pneumoniae A15130; overnight 37° C.; read-out: Minimum Inhibitory Concentration (M.I.C.)
Excerpt: as §1

[4] = tested on: Klebsiella species A20468; assay: MIC, tube dilution, Klebsiella species A20468; assay type: cell-based; conditions: Klebsiella species (K. pneumoniae) A20468; overnight 37° C.; read-out: Minimum Inhibitory Concentration (M.I.C.)
Excerpt: as §1

Pr. mirabilis A-9900 = assay: MIC, tube dilution, Proteus mirabilis A9900; assay type: cell-based; conditions: Proteus mirabilis, A9900, Proteus mirabilis A9900; overnight 37° C.; read-out: Minimum Inhibitory Concentration (M.I.C.)
Excerpt: as §1

Pr. morganii A-15153 = assay: MIC, tube dilution, Proteus morganii A15153; assay type: cell-based; conditions: Morganella morganii, A15153, Proteus morganii A15153; overnight 37° C.; read-out: Minimum Inhibitory Concentration (M.I.C.)
Excerpt: as §1

Ser. marcescens A-20019 = assay: MIC, tube dilution, Serratia marcescens A20019; assay type: cell-based; conditions: Serratia marcescens, A20019, Serratia marcescens A20019; overnight 37° C.; read-out: Minimum Inhibitory Concentration (M.I.C.)
Excerpt: as §1

Ent. cloacae A-9659 = assay: MIC, tube dilution, Enterobacter cloacae A9659; assay type: cell-based; conditions: Enterobacter cloacae, A9659, Enterobacter cloacae A9659; overnight 37° C.; read-out: Minimum Inhibitory Concentration (M.I.C.)
Excerpt: as §1

Ent. cloacae A-9656 = assay: MIC, tube dilution, Enterobacter cloacae A9656; assay type: cell-based; conditions: overnight 37° C., read-out: Minimum Inhibitory Concentration (M.I.C.)
Excerpt: as §1

Ps. aeruginosa A-9843A = assay: MIC, tube dilution, Pseudomonas aeruginosa A9843A; assay type: cell-based; conditions: Pseudomonas aeruginosa, A9843A, read-out: Minimum Inhibitory Concentration (M.I.C.), Pseudomonas aeruginosa A9843A; overnight 37° C.
Excerpt: as §1

Ps. aeruginosa A-21213 = assay: MIC, tube dilution, Pseudomonas aeruginosa A21213; assay type: cell-based; conditions: overnight 37° C., read-out: Minimum Inhibitory Concentration (M.I.C.)
Excerpt: as §1

Proteus rettgeri A21203 = assay: MIC, tube dilution, Proteus rettgeri A21203; assay type: cell-based; conditions: Providencia rettgeri, overnight 37° C., read-out: Minimum Inhibitory Concentration (M.I.C.)
Excerpt: as §1

Proteus vulgaris A21559 = assay: MIC, tube dilution, Proteus vulgaris A21559; assay type: cell-based; conditions: Proteus vulgaris
Excerpt: as §1

[5] = Staph. aureus A15097 (Meth-Res), read-out: Minimum Inhibitory Concentration (M.I.C.)
[6] = Escherichia coli, A203411, E. coli A20341-1; overnight 37° C.; read-out: Minimum Inhibitory Concentration (M.I.C.)
[7] = Enterobacter cloacae, A9656, Enterobacter cloacae A9656
[8] = Pseudomonas aeruginosa, A21213, Pseudomonas aeruginosa A21213
[9] = A21203, Proteus rettgeri A21203
[10] = A21559, Proteus vulgaris A21559, overnight 37° C., read-out: Minimum Inhibitory Concentration (M.I.C.)

| SMILES | MIC (Str. pneumoniae A-9585) [µg/mL] | MIC (Str. pyogenes A-9604) [µg/mL] | MIC (Staph. aureus A-9537) [µg/mL] | MIC [1] [µg/mL] | MIC [2] [µg/mL] | MIC [3, 5] [µg/mL] | MIC (Str. faecalis A-20688) [µg/mL] | MIC (E. coli A-15119) [µg/mL] | MIC (E. coli A-20341-1; [6]) [µg/mL] | MIC (K. pneumoniae A-15130) [µg/mL] | MIC [4] [µg/mL] | MIC (Pr. mirabilis A-9900) [µg/mL] | MIC (Pr. morganii A-15153) [µg/mL] | MIC (Ser. marcescens A-20019) [µg/mL] | MIC (Ent. cloacae A-9659) [µg/mL] | MIC (Ent. cloacae A-9656; [7]) [µg/mL] | MIC (Ps. aeruginosa A-9843A) [µg/mL] | MIC (Ps. aeruginosa A-21213; [8]) [µg/mL] | MIC (Proteus rettgeri A21203; [9]) [µg/mL] | MIC (Proteus vulgaris A21559; [10]) [µg/mL] | other results |
| --- | --- | --- | --- | --- | --- | --- | --- | --- | --- | --- | --- | --- | --- | --- | --- | --- | --- | --- | --- | --- | --- |
| CC1=C(C(=O)O)N2C(=O)[C@H]([C@@H](C)N)[C@H]2S1 (relative stereo) [Example 70, (1'R,5R,6S and 1'S,5S,6R) 6-1'Amino-1'-ethyl)-2-methylpenem-3-carboxylic Acid] | > 63 | > 63 | > 63 | > 32 | > 63 | > 63 | > 63 | > 63 | > 63 | > 63 | > 63 | > 63 | > 63 | > 63 | > 63 | > 63 | > 63 | > 63 | > 63 | > 63 |  |
| NCC(=O)OCC1=C(C(=O)O)N2C(=O)CC2S1 (centres unmarked) [Example 81, 2-Aminoacetoxymethyl-penem-3-carboxylic Acid] | 2 (≈ 7.74 µM) | 16 (≈ 62 µM) | 32 (≈ 124 µM) | > 32 | 2 (≈ 7.74 µM) | 8 (≈ 31 µM) | 63 (≈ 244 µM) | 2 (≈ 7.74 µM) | 32 (≈ 124 µM) | 8 (≈ 31 µM) | > 63 | 4 (≈ 15.5 µM) | 8 (≈ 31 µM) | 8 (≈ 31 µM) | 8 (≈ 31 µM) | 8 (≈ 31 µM) | 63 (≈ 244 µM) | > 63 | 8 (≈ 31 µM) | 16 (≈ 62 µM) |  |
| CC[C@@H](O)[C@H]1C(=O)N2C(C(=O)O)=C(C)S[C@H]12 (relative stereo) [Example 94, (1'R,5R,6S and 1'S,5S,6R) 6-(1'-Hydroxy-1'-propyl)-2-methylpenem-3carboxylic acid, sodium and potassium salts (isomer B)] | 1 | 16 | 32 | > 63 | 32 |  | > 125 | > 125 |  | > 125 | > 125 | > 125 | > 125 | > 125 | > 125 |  | > 125 |  |  |  | MIC ([3]; read-out: Minimum Inhibitory Concentration (M.I.C.), Staph. aureus A15097 (Meth-Res)): > 125 µg/mL; MIC (E. coli A-20341-1; Escherichia coli, A203411; E. coli A20341-1; overnight 37° C.; read-out: Minimum Inhibitory Concentration (M.I.C.)): > 125 µg/mL; MIC (Ent. cloacae A-9656; Enterobacter cloacae A9656): > 125 µg/mL; MIC (Ps. aeruginosa A-21213; Pseudomonas aeruginosa A21213): > 125 µg/mL; MIC (Proteus rettgeri A21203; Proteus rettgeri A21203): > 125 µg/mL; MIC (Proteus vulgaris A21559; A21559, read-out: Minimum Inhibitory Concentration (M.I.C.)): > 125 µg/mL |
| NCC[S+]([O-])CC1=C(C(=O)O)N2C(=O)C[C@H]2S1 (some centres unmarked) [Example 101, 2-(2-Aminoethylsulfinylmethyl) penem-3-carboxylic Acid] | 0.5 (≈ 1.81 µM) | 0.5 (≈ 1.81 µM) | 0.5 (≈ 1.81 µM) | 4 | 4 (≈ 14.5 µM) | 63 (≈ 228 µM) | > 63 | 8 (≈ 28.9 µM) | 32 (≈ 116 µM) | 32 (≈ 116 µM) | > 63 | 8 (≈ 28.9 µM) | 16 (≈ 57.9 µM) | 32 (≈ 116 µM) | 32 (≈ 116 µM) | 63 (≈ 228 µM) | 63 (≈ 228 µM) | 63 (≈ 228 µM) | 16 (≈ 57.9 µM) | 16 (≈ 57.9 µM) |  |
